The conditions of the data set: Liquid, Closed cell (Static) method.

± gives the expanded uncertainty stated by the source.

Regarding `O=C=O` [carbon dioxide], the vapor or sublimation pressure (commonly the pressure of vapour in equilibrium with the condensed phase) reads like this: (278.15 K) 3960 ± 8 kPa; (288.15 K) 5080 ± 10 kPa; (298.15 K) 6425 ± 13 kPa.

As for `FC(C(F)(F)F)C(F)(F)F` [1,1,1,2,3,3,3-heptafluoropropane], the “vapor or sublimation pressure” value (278.15 K) is listed as 234 ± 1 kPa; the “vapor or sublimation pressure” value (288.15 K) amounted to 327 ± 1 kPa; the “vapor or sublimation pressure” value (298.15 K) is 451 ± 1 kPa; the “vapor or sublimation pressure” value (308.15 K) is listed as 611 ± 1 kPa; the “vapor or sublimation pressure” value (318.15 K) came to 805 ± 2 kPa; the “vapor or sublimation pressure” value (328.15 K) was 1040 ± 2 kPa.
